From article PMC12040169 (PLOS Biology, 2025)
“And” between values parts separate entries of the source, which are not always exact repeats. Equal values may be shown once.

Experiments:
[1] = test system: HeLa; conditions: bulk resorufin, single well, 28.5 h, 10 µM, Bulk resorufin fluorescence
[2] = in vitro; conditions: human, hela cells, % viability

With COc1ccc2[nH]cc(CC(=O)N3CCC(C#N)(c4ccccc4)CC3)c2c1 [CBK091403] the % viability [1] was 105% and the viability at 28.5 h, 10 µM ([2]; bulk resorufin, single well) was 96.6%.
For O=C(NCCc1ccccc1)[C@@H]1C=CCN1C(=O)c1cccs1 [CBK284320], the % viability [1] was 92.9% and the viability at 28.5 h, 10 µM [2] was 95.2%.
With O=C(O)C1CCN(C2CC(=O)N(CCc3ccccc3)C2=O)CC1 (centres unmarked) [CBK269100] the % viability [1] was 97.3% and the viability at 28.5 h, 10 µM [2] was 97.1%.
O=C(CN1C(=O)[C@@H]2CCCN2C(=O)c2ccccc21)NCc1ccccc1 [CBK286318] showed a % viability [1] of 89.5% and a viability at 28.5 h, 10 µM [2] of 98.6%.
With Cc1c2c(=O)n(-c3ccccc3)[nH]c2cc(=O)n1CCc1ccccc1 [CBK269995] the % viability [1] was 92.7% and 109% and the viability at 28.5 h, 10 µM [2] was 101%.
For CN1CCN(S(=O)(=O)c2cccc3cccnc23)CC1 [CBK051241], the % viability [1] was 93.2% and the viability at 28.5 h, 10 µM [2] was 106%.
FC(F)(F)c1cccc(-c2cnn(-c3ccncc3)n2)c1 [CBK112668] showed a % viability [1] of 93.6% and a viability at 28.5 h, 10 µM [2] of 102%.
Cn1nnc2cc(NC(=O)N3CC4(C)CC3CC(C)(C)C4)ccc21 (centres unmarked) [CBK304389] showed a % viability [1] of 95.3% and a viability at 28.5 h, 10 µM [2] of 94.6%.
For C[C@H]1CN2CCCC2CN1Cc1cccc(F)c1 (some centres unmarked) [CBK285425], the % viability [1] was 104% and the viability at 28.5 h, 10 µM [2] was 97.7%.
With Cn1cc(C(NC(=O)c2nc(N)nc3c2CCCC3)[C@H]2C[C@@H](O)C2)cn1 (some centres unmarked) [CBK307535] the % viability [1] was 92.2% and 114%.
Work on O=C(NC1CCCCC1)[C@H]1C=CCN1C(=O)c1ccc(F)cc1 [CBK282324] yielded a % viability [1] of 86.4% and a viability at 28.5 h, 10 µM [2] of 93.9%.
Work on CCOC(=O)CSc1nc2ccccc2nc1NC(C)C [CBK107166] yielded a % viability [1] of 111% and a viability at 28.5 h, 10 µM [2] of 101%.
With C[C@@H]1CN2CCCC2CN1Cc1cccc2cccnc12 (some centres unmarked) [CBK284551] the % viability [1] was 87.8% and the viability at 28.5 h, 10 µM [2] was 82.4%.
For Cc1cc(-c2nccnc2NCCCN2CCCC2=O)cc(C)c1O [CBK037632], the % viability [1] was 98% and the viability at 28.5 h, 10 µM [2] was 94.1%.
Work on CS(=O)(=O)Nc1cc2ccccc2c(-c2ccc(S(C)(=O)=O)cc2)n1 [CBK085756] yielded a % viability [1] of 107% and a viability at 28.5 h, 10 µM [2] of 95.6%.
FC(F)(F)c1ccc(Sc2ccccn2)nc1 [CBK093785] gave a % viability [1] of 111% and a viability at 28.5 h, 10 µM [2] of 100%.
COC(=O)c1ccc(-c2nc3nnc(C)n3[nH]2)cc1 [CBK027508] gave a % viability [1] of 87.7% and a viability at 28.5 h, 10 µM [2] of 103%.
In the case of CC(Oc1ccccc1)C(=O)Nc1ccccc1C(=O)O (centres unmarked) [CBK262854], the % viability [1] is reported as 109% and 87%.
For C[C@@H]1CN2CCCC2CN1Cc1ccc(F)cc1F (some centres unmarked) [CBK285455], the % viability [1] was 97.8% and the viability at 28.5 h, 10 µM [2] was 106%.
For N#CCCCN1CCN(c2nccnc2OC2CCCCC2)CC1 [CBK082841T], the % viability [1] was 107% and the viability at 28.5 h, 10 µM [2] was 87.4%.
CCOC(=O)C1=C(C)NC(=O)NC1c1ccc(Cl)cc1Cl (centres unmarked) [CBK072057] gave a % viability [1] of 91% and a viability at 28.5 h, 10 µM [2] of 93.2%.
With Fc1ccc(COc2cc(N3CCCC3)ncn2)cc1 [CBK115675] the % viability [1] was 96.4% and the viability at 28.5 h, 10 µM [2] was 109%.
In the case of COc1ccc(-c2nc(SCc3ccccc3)[nH]c(=O)c2C#N)cc1 [CBK007169], the % viability [1] is reported as 107% and 84.8%.
In the case of CCn1c(C)nc2cc(C(=O)N3N=CCC3(O)C(F)(F)F)ccc21 (centres unmarked) [CBK019301], the % viability [1] is reported as 108% and the viability at 28.5 h, 10 µM [2] is reported as 105%.
For O=C(CN1C(=O)[C@@H]2CCCN2C(=O)c2ccccc21)NCCc1ccccc1 [CBK286402], the % viability [1] was 90% and the viability at 28.5 h, 10 µM [2] was 87.1%.
COc1cccc2sc(NC(=O)c3ccc4c(c3)OCCO4)nc12 [CBK149285] showed a % viability [1] of 92.1% and a viability at 28.5 h, 10 µM [2] of 99.1%.
Cc1cc2c(cc1C)NC(CC(=O)Nc1ccc(Cl)cc1)C(=O)N2 (centres unmarked) [CBK263245] showed a % viability [1] of 90.5% and a viability at 28.5 h, 10 µM [2] of 83.4%.
In the case of C[C@@H]1CN2CCCC2CN1Cc1ccc(Br)o1 (some centres unmarked) [CBK285410], the % viability [1] is reported as 101% and the viability at 28.5 h, 10 µM [2] is reported as 99.7%.
In the case of CC(C)(C)OC(=O)N1CCC[C@H]1C(=O)c1nccs1 [CBK284282], the % viability [1] is reported as 95.5% and the viability at 28.5 h, 10 µM [2] is reported as 108%.
Compound C[C@H]1CN2CCCC2CN1Cc1ccc(CN(C)C)cc1 (some centres unmarked) [CBK285438] has a % viability [1] of 101% and a viability at 28.5 h, 10 µM [2] of 88.9%.
For COc1cc(CNCc2cccnc2)cc(Br)c1OCc1ccc(Cl)cc1 [CBK074596C], the % viability [1] was 95.5% and the viability at 28.5 h, 10 µM [2] was 107%.
C[C@H](Cn1nc2c(cc1=O)CCCCC2)NC(=O)c1ccccc1F [CBK284547] gave a % viability [1] of 91.5% and a viability at 28.5 h, 10 µM [2] of 89.5%.
In the case of CN(C(=O)CC1SC(NCC2CCCCC2)=NC1=O)c1ccccc1 (centres unmarked) [CBK067371], the % viability [1] is reported as 87.9% and 110%.
With COc1ccc(CN2C(=O)[C@H]3CCCN3C(=O)c3ccccc32)cc1 [CBK282851] the % viability [1] was 87.8% and 109%.
For Cc1ccc2sc(NC(=O)c3ccc(N4C(=O)CCC4=O)cc3)nc2c1C [CBK287587], the % viability [1] was 84.7% and 106%.
In the case of CCOC(=O)CN1CCC(Oc2nccnc2OCCN2C(=O)CCC2=O)CC1 [CBK084348], the % viability [1] is reported as 120% and 80%.
For Cc1onc(-c2ccccc2)c1CNC(=O)C1COc2ccccc2O1 (centres unmarked) [CBK144086], the % viability [1] was 104% and 80.3%.
With C[C@H]1CN2C[C@H](O)CC2CN1Cc1ccc(C(F)(F)F)cc1 (some centres unmarked) [CBK285147] the % viability [1] was 113% and 89.6%.
With CCOC(=O)c1cnc2c(Cl)cccc2c1NCCN1CCOCC1 [CBK263919] the % viability [1] was 88.1% and 109%.
For CC(NC(=O)N(Cc1ccccc1C(F)(F)F)CC(C)(C)CN)c1ccccc1 (centres unmarked) [CBK026834C], the % viability [1] was 118% and 97.8%.
With O=C(O)CC1C(=O)NC(=O)N1CCc1ccccc1 (centres unmarked) [CBK287254] the % viability [1] was 111% and 85.3%.
For O=C1CNC(=O)C2(C/C=C/C[C@H]3COCC[C@H]3N1)CCNCC2 [CBK292151], the % viability [1] was 82.1% and 104%.
In the case of COc1ccc(C(C)C)cc1-c1cnc2ncccc2c1N [CBK083686], the % viability [1] is reported as 108% and 81.3%.
With C=CCNC(=O)[C@H]1C=CCN1C(=O)Nc1ccc(F)cc1 [CBK282318] the % viability [1] was 82.7% and 110%.
In the case of Nc1cc2cccnc2c(-c2cc(F)cc(F)c2)n1 [CBK061908], the % viability [1] is reported as 80.4% and 85.8% and 103%.
With CC(=O)c1c(C)nc(-c2ccc(Cl)c(Cl)c2)n1O [CBK288525] the % viability [1] was 116% and 89.2%.
For COC(=O)Cn1nnc(-c2ccc(C)cc2)n1 [CBK068195], the % viability [1] was 123% and 93.2%.
O=C(Nc1cccnc1)c1cnc2cc(C(F)(F)F)ccc2c1O [CBK107474T] showed a % viability [1] of 88%.
In the case of CC(C)C(=O)Nc1cc2cccnc2c(-c2cccc(C(F)(F)F)c2)n1 [CBK081266], the % viability [1] is reported as 125% and 100%.
In the case of O=C(Nc1cc(-c2ccncc2)c[nH]c1=O)c1ccc(Cl)c(Cl)c1 [CBK115868], the % viability [1] is reported as 94.1% and 119%.
In the case of O=C(CSc1nc(O)c(Cc2ccccc2)c(=O)[nH]1)Nc1ccc([N+](=O)[O-])cc1 [CBK265887], the % viability [1] is reported as 88% and 113%.
In the case of CC[C@@H](Cn1nc(-c2cccs2)ccc1=O)NC(=O)C1CC1 [CBK282309], the % viability [1] is reported as 80.2% and 102%.
With c1ccc(CN2CCC(Oc3cncc(OCCN4CCOCC4)n3)C2)cc1 (centres unmarked) [CBK084478] the % viability [1] was 107% and 84%.
For O=c1cc(O)c2ccccc2n1Cc1ccccc1 [CBK218877], the % viability [1] was 107% and 84.4%.
In the case of Cn1cc(C(=O)N2CCc3[nH]c4ccccc4c3C2)cn1 [CBK281875], the % viability [1] is reported as 104% and 83.7%.
In the case of CNc1cc(NS(=O)(=O)c2ccc(N)cc2)nc(NC)n1 [CBK011865], the % viability [1] is reported as 93%.
For O=C(CC1SC(NC2CC3C=CC2C3)=NC1=O)Nc1ccccc1Cl (centres unmarked) [CBK005795], the % viability [1] was 109% and 72.5%.
In the case of O=C(O)CCC(=O)Nc1ccc(Br)cn1 [CBK056920], the % viability [1] is reported as 89.9% and 110%.
In the case of COc1cc2c(cc1OC)CN(C(=O)c1ccc3occc3c1)CC2 [CBK122746], the % viability [1] is reported as 66.2% and 36.8%.
In the case of C[C@H]1CN2C[C@H](O)CC2CN1Cc1ccc(-c2ccccc2Cl)o1 (some centres unmarked) [CBK285418], the % viability [1] is reported as 109% and 85.9%.
